One experiment has as its target T1, GST-HDMX(1–188) (Homo sapiens, UniProt O15151).
T1 sequence (O15151 1-188): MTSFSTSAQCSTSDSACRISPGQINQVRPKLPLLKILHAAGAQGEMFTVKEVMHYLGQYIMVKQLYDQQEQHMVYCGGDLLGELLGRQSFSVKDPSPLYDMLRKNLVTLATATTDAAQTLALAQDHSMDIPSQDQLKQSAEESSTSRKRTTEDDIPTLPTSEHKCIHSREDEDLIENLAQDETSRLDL
As to the kind of experiment: Fluorescence anisotropy competition, HDMX binding to fluorescein-labeled p53.

A further experiment concerns the target HDM2(11–119) (Homo sapiens, UniProt Q00987). In words: Fluorescence anisotropy competition, HDM2 binding to fluorescein-labeled p53. For orientation: In fluorescence polarisation assays a small probe gives low polarisation when free and higher when bound to something large.
Setting [1] is: compared with derivative with hydrogen at position Y (NAPA 5).
[2] abbreviates: bromine at position Y replaced with methyl, compared with NAPA 9.

Molecules are shown by their SMILES.

For the compound `CC(C)CCCCNC(=O)N(CC(CCC(=O)O)NC(N)=O)C(CCCCN)CN(C(=O)NCCc1ccc(Br)cc1)C(CCC(=O)O)CN(CCC(N)=O)C(=O)NCCCc1ccc(Br)cc1` (stereo not drawn) [NAPA 13], the “inhibition of HDMX-p53 binding (in words)” value on GST-HDMX(1–188) is on record as “modest inhibition”. Moreover, the “inhibition of HDM2-p53 binding (in words)” value on HDM2(11–119) was “modest inhibition”.

Take `CC(C)CCC(=O)NC(CCC(=O)O)CN(CCC1CCC2(CCCCC2)CC1)C(CCCCN)CN(CCCCc1ccc(Br)cc1)[C@@H](CCC(=O)O)CN(CCCCCc1ccc(F)cc1)CCC(N)=O` (stereo partly drawn) [NAPA 36]: on GST-HDMX(1–188), the “inhibition of HDMX-p53 binding (in words)” value was “no inhibitory activity”. On HDM2(11–119), the “inhibition of HDM2-p53 binding (in words)” value is given as “no inhibitory activity”.

Take `CC(C)CCC(=O)N[C@@H](CCCC(=O)O)CN(C(=O)NCCCC1CCCCC1)[C@@H](CCCCN)CN(C(=O)NCCc1ccc(Br)cc1)[C@@H](CCCC(=O)O)CN(CCC(N)=O)C(=O)NCCCc1ccc(F)cc1` [NAPA 34]: the “inhibition of HDMX-p53 binding (in words)” value at GST-HDMX(1–188) is “negative impact on inhibitory activity”. Moreover, the “inhibition of HDM2-p53 binding (in words)” value at HDM2(11–119) is recorded as “negative impact on inhibitory activity”.

With `CC(C)CCCNC(=O)N(CC(CCC(=O)O)NC(N)=O)C(CCCCN)CN(C(=O)NCCc1ccc(Br)cc1)C(CCC(=O)O)CN(CCC(N)=O)C(=O)NCCCc1ccc(Br)cc1` (stereo not drawn) [NAPA 9], the “inhibition of HDMX binding with p53 relative to NAPA 5” value at GST-HDMX(1–188) (setting [1]) is “two to four times better”. Also, the “inhibition of HDM2 binding with p53 relative to NAPA 5” value at HDM2(11–119) (setting [1]) is reported as “two to four times better”.

Take `NCCCC[C@@H](CN(C(=O)NCCCC1CCCCC1)[C@@H](CCCCN)CN(C(=O)NCCc1ccc(Br)cc1)[C@@H](CCCCN)CN(CCC(N)=O)C(=O)NCCCc1ccc(F)cc1)NC(N)=O` [NAPA 35]: the “inhibition of HDMX-p53 binding (in words)” value at GST-HDMX(1–188) was “eliminated all inhibitory activity”. Besides, on HDM2(11–119), the “inhibition of HDM2-p53 binding (in words)” value was “eliminated all inhibitory activity”.

For the compound `Cc1ccc(CCCNC(=O)N(CCC(N)=O)CC(CCC(=O)O)N(CC(CCCCN)N(CC(CCC(=O)O)NC(N)=O)C(=O)NCCCC(C)C)C(=O)NCCc2ccc(Br)cc2)cc1` (stereo not drawn) [NAPA 10], the “inhibitory activity towards HDMX relative to NAPA 9” value at GST-HDMX(1–188) (setting [2]) was “did not significantly affect”. The “activity against HDM2 relative to NAPA 9” value on HDM2(11–119) (setting [2]) is recorded as “decreased by three times”.

For the origin of these results see article PMC2784108 (Bioorganic & medicinal chemistry, 2009).
